Laboratory results published in the supplement of paper PMC10307832.

Tests used:
Test in all cases: relative viability (nuclei count vs DMSO), 5 days (fraction); higher = more cells survive
XMD8-85 + Decitabine = compound: CN1CCN(CC1)C2=CC(=C(C=C2)NC3=NC=C4C(=N3)N(C5=CC=CC=C5C(=O)N4C)C)OC [XMD8-85] + Nc1ncn([C@H]2C[C@H](O)[C@@H](CO)O2)c(=O)n1 [Decitabine] (partner 2 µM)
How it was run: (§1)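 Each reported value is a median over duplicate plates. It expresses relative viability: treated-well nuclei count divided by vehicle-well nuclei count. Lung cancer cell lines in 1536-well plates were dosed by pin tool a day after seeding, alone with one drug or with a fixed anchor-drug dose plus five library-drug doses (not always all listed) in √10 steps, and nuclei were counted after 5 days.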

4EGI-1 + Tozasertib = compound: O=C(O)C(Cc1ccccc1[N+](=O)[O-])=NNc1nc(-c2ccc(Cl)c(Cl)c2)cs1 (mixture of isomers) [4EGI-1] + Cc1cc(Nc2cc(N3CCN(C)CC3)nc(Sc3ccc(NC(=O)C4CC4)cc3)n2)n[nH]1 [Tozasertib] (partner 0.1 µM)
How it was run: as §1

XMD8-85 + Crizotinib = compound: CN1CCN(CC1)C2=CC(=C(C=C2)NC3=NC=C4C(=N3)N(C5=CC=CC=C5C(=O)N4C)C)OC [XMD8-85] + C[C@@H](Oc1cc(-c2cnn(C3CCNCC3)c2)cnc1N)c1c(Cl)ccc(F)c1Cl [Crizotinib] (partner 1 µM)
How it was run: as §1

4EGI-1 + Vorinostat = compound: O=C(O)C(Cc1ccccc1[N+](=O)[O-])=NNc1nc(-c2ccc(Cl)c(Cl)c2)cs1 (mixture of isomers) [4EGI-1] + O=C(CCCCCCC(=O)Nc1ccccc1)NO [Vorinostat] (partner 1 µM)
How it was run: as §1

Cell Line | relative viability (XMD8-85 + Decitabine; first compound 0.08 µM) | relative viability (XMD8-85 + Decitabine; first compound 0.253 µM) | relative viability (XMD8-85 + Decitabine; first compound 0.8 µM) | relative viability (XMD8-85 + Decitabine; first compound 2.53 µM) | relative viability (XMD8-85 + Decitabine; first compound 8 µM) | relative viability (4EGI-1 + Tozasertib; first compound 0.5 µM) | relative viability (4EGI-1 + Tozasertib; first compound 1.581 µM) | relative viability (4EGI-1 + Tozasertib; first compound 5 µM) | relative viability (4EGI-1 + Tozasertib; first compound 15.81 µM) | relative viability (4EGI-1 + Tozasertib; first compound 50 µM) | relative viability (XMD8-85 + Crizotinib; first compound 0.08 µM) | relative viability (XMD8-85 + Crizotinib; first compound 0.253 µM) | relative viability (XMD8-85 + Crizotinib; first compound 0.8 µM) | relative viability (XMD8-85 + Crizotinib; first compound 2.53 µM) | relative viability (XMD8-85 + Crizotinib; first compound 8 µM) | relative viability (4EGI-1 + Vorinostat; first compound 0.5 µM) | relative viability (4EGI-1 + Vorinostat; first compound 1.581 µM) | relative viability (4EGI-1 + Vorinostat; first compound 5 µM) | relative viability (4EGI-1 + Vorinostat; first compound 15.81 µM) | relative viability (4EGI-1 + Vorinostat; first compound 50 µM)
LU99A | 0.919 | 0.86 | 1.08 | 0.769 | 0.694 | 0.258 | 0.227 | 0.298 | 0.28 | 0.208 | 0.476 | 0.484 | 0.687 | 0.626 | 0.367 | 0.514 | 0.421 | 0.44 | 0.528 | 0.261
PC-14 | 0.275 | 0.276 | 0.223 | 0.162 | 0.133 | 0.584 | – | 0.57 | – | 0.28 | 0.867 | 0.874 | 0.834 | 0.972 | 0.722 | 0.865 | – | 0.824 | 0.0883 | 0.0654
SK-MES-1 | 0.348 | 0.353 | 0.39 | 0.39 | 0.3 | 0.894 | 0.596 | 0.925 | 0.699 | 0.234 | 0.964 | 1.03 | 0.94 | 0.923 | 0.61 | 1.09 | 0.938 | 1.1 | 0.728 | 0.228
NCI-H358 | 0.219 | 0.243 | 0.229 | 0.234 | 0.198 | 0.102 | 0.117 | 0.102 | 0.102 | 0.0781 | 0.674 | 0.465 | 0.816 | 0.506 | 0.248 | 0.609 | 0.613 | 0.663 | 0.319 | 0.0967
NCI-H2347 | 0.599 | 0.619 | 0.583 | – | 0.531 | 0.589 | – | 0.557 | 0.46 | 0.467 | 0.696 | 0.785 | 0.749 | 0.609 | 0.614 | 0.724 | 0.59 | 0.689 | 0.589 | 0.36
SK-LU-1 | 0.607 | 0.58 | 0.61 | 0.705 | 0.549 | 0.374 | 0.335 | 0.381 | 0.259 | 0.227 | 0.568 | 0.892 | 1.07 | 1.12 | 0.653 | 0.717 | 0.786 | 0.817 | 0.757 | 0.289
NCI-H650 | 0.336 | 0.3 | 0.354 | 0.309 | 0.324 | 0.858 | – | 0.777 | 0.644 | 0.626 | 0.6 | 0.603 | 0.712 | 0.57 | 0.345 | 0.528 | – | 0.472 | 0.488 | 0.296
NCI-H1437 | 0.641 | 0.534 | 0.596 | – | 0.501 | 0.416 | 0.378 | 0.399 | 0.318 | 0.175 | 0.76 | 0.923 | 1.14 | 0.856 | 0.491 | 0.975 | 0.805 | 0.776 | 0.418 | 0.206
